Biological target: E3 ubiquitin-protein ligase Mdm2 (Homo sapiens, UniProt Q00987)
Assay: AlphaScreen Assay
Settings: pH 7.4; 24 °C
Protocol: When two proteins interact (one of which is conjugated to the donor bead and the other to the acceptor bead) the beads are brought into close proximity. Excitation of a photosensitizer in the donor bead results in the production of singlet oxygen that diffuses to and reacts with a chemiluminescent molecule in the acceptor bead. […] Nickel acceptor beads and glutathione donor beads were added. Following 1 h incubation at 24 deg C, the mixture was analyzed in a fluorometer at an excitation wavelength of 680 nm. Nutlin-3a obtained from Cayman Chemical was used as a control. The IC50 values reported are from runs repeated four times.

Sequence of E3 ubiquitin-protein ligase Mdm2 (Q00987 whole entry): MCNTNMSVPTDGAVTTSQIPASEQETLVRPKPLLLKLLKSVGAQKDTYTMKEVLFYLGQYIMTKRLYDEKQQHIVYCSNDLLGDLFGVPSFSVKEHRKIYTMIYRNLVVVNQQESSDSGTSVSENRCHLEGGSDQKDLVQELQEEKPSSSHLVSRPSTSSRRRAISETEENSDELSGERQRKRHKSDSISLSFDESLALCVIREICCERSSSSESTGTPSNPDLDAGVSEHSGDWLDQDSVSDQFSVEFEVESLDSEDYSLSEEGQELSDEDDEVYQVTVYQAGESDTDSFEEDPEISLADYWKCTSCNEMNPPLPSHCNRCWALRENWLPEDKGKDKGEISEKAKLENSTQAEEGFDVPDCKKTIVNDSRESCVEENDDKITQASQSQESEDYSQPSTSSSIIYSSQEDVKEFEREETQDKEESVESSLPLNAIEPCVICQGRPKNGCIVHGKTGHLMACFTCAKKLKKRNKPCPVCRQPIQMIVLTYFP

IC50: 25 µM
Structure (SMILES): c1ccc(C(N=Nc2nc3ccccc3s2)c2ccccn2)cc1 (stereo unspecified) [NSC-333003]

— BindingDB's records for doi:10.1016/j.bmcl.2009.04.124 (H. Lee Moffitt Cancer Center, 2009)
